SMILES strings stand for the structures.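 96-well plates; 48 h exposure; 5 concentrations. Endpoints by linear interpolation between flanking doses. Not reached: highest tested concentration assigned. At the GI50, growth is halved. TGI: total growth inhibition.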

The results in this text go back to PubChem BioAssay (NCI).

Test systems include MOLT-4 leukemia; U251 CNS; M14 melanoma; HCT-15 colon; NCI-H522 lung; OVCAR-3 ovarian; SN12C renal; HCC-2998 colon; OVCAR-4 ovarian; SF-295 CNS.
Holding throughout (assay): inhibition of tumour cell growth, NCI panel, 48 h

As for `C=CN(C(=O)N1CCN(c2cc3c(cc2F)c(=O)c(C(=O)O)cn3C2CC2)CC1)c1nc(-c2ccc(OC)cc2)cs1`, the GI50 was 3360 nM in the assay with MOLT-4 leukemia; 4040 nM with U251 CNS; 3610 nM with M14 melanoma; 2860 nM in the assay on HCT-15 colon; 2670 nM in the assay on NCI-H522 lung; 3290 nM with OVCAR-3 ovarian. Further, the GI50 is 3140 nM in the assay with SN12C renal, 5120 nM in the assay with HCC-2998 colon, 3.96 µM in the assay with OVCAR-4 ovarian and 2830 nM in the assay with SF-295 CNS. Also, the TGI in the assay with MOLT-4 leukemia is more than 100 µM; in the assay on U251 CNS it was 13.4 µM; with M14 melanoma, more than 100 µM; with HCT-15 colon it was more than 100 µM; in the assay with NCI-H522 lung it was 6.95 µM; in the assay with OVCAR-3 ovarian, more than 100 µM. Moreover, the TGI in the assay with SN12C renal was more than 100 µM; with HCC-2998 colon it was more than 100 µM; in the assay on OVCAR-4 ovarian, more than 100 µM; in the assay on SF-295 CNS it was 8.26 µM.

On to `C/C=C(\C)c1cc(=O)c2c(C)cc3c(c2o1)C(=O)c1c(O)c(C2CC(C)(N(C)C)C(OC(C)=O)C(C)O2)cc(C2CC(N(C)C)C(O)C(C)O2)c1C3=O` (stereo not given), for which the TGI was more than 15.2 µM in the assay with MOLT-4 leukemia; more than 50 µM in the assay on U251 CNS; 1.85 µM with M14 melanoma; 12.2 µM with HCT-15 colon; 1.16 µM in the assay with NCI-H522 lung; more than 21 µM with OVCAR-3 ovarian. Also, the TGI is 8.81 µM with SN12C renal, 2.32 µM with HCC-2998 colon, 10.2 µM with OVCAR-4 ovarian and more than 16.9 µM in the assay on SF-295 CNS.

On to `COc1ccc2c(c1)C(=O)c1c-2n(CCCN(C)C)c(=O)c2ccccc12`, for which the GI50 is less than 30.7 nM in the assay on MOLT-4 leukemia; 197 nM in the assay with U251 CNS; 483 nM in the assay on M14 melanoma; 250 nM in the assay on HCT-15 colon; 188 nM in the assay on NCI-H522 lung; 551 nM with OVCAR-3 ovarian. Moreover, the GI50 is 255 nM in the assay with SN12C renal, 187 nM in the assay on HCC-2998 colon, 0.808 µM with OVCAR-4 ovarian and 223 nM in the assay on SF-295 CNS. The TGI with MOLT-4 leukemia stood at 12 µM; with U251 CNS, 3.68 µM; in the assay with M14 melanoma, 1.87 µM; in the assay with HCT-15 colon, 3.95 µM; in the assay with NCI-H522 lung, 4.04 µM; in the assay on OVCAR-3 ovarian it was 7.85 µM. Moreover, the TGI with SN12C renal was determined as 5.7 µM; with HCC-2998 colon, 0.955 µM; in the assay on OVCAR-4 ovarian it was 6.87 µM; with SF-295 CNS, 1.21 µM.

For `COC(COC(N)=O)C1=C(N2CC2)C(=O)C(C)=C(N2CC2)C1=O` (stereo not given), the TGI in the assay with MOLT-4 leukemia worked out at 7.26 µM; in the assay on U251 CNS, 0.698 µM; with M14 melanoma, 0.147 µM; with HCT-15 colon, 0.762 µM; in the assay on NCI-H522 lung, 0.156 µM; in the assay on OVCAR-3 ovarian, 0.379 µM. Further, the TGI worked out at 1.28 µM with SN12C renal, 0.311 µM in the assay on HCC-2998 colon, 0.413 µM in the assay on OVCAR-4 ovarian and 0.413 µM in the assay with SF-295 CNS.

As for `COc1ccc2ncn(-c3cc(O[C@H](C)c4ccccc4C(F)(F)F)c(C(N)=O)s3)c2c1`, the GI50 with MOLT-4 leukemia was 122 nM; in the assay on U251 CNS it was 166 nM; in the assay with M14 melanoma, 98.9 nM; in the assay on HCT-15 colon, 134 nM; in the assay with NCI-H522 lung it was 99.5 nM; with OVCAR-3 ovarian, 85.8 nM. Also, the GI50 in the assay with SN12C renal is 1190 nM; in the assay on HCC-2998 colon, 161 nM; in the assay on OVCAR-4 ovarian, 3.49 µM; with SF-295 CNS, 162 nM. In addition, the TGI in the assay with MOLT-4 leukemia worked out at 4.43 µM; with U251 CNS, 6.24 µM; with M14 melanoma it was 3.23 µM; in the assay with HCT-15 colon, 17.2 µM; in the assay on NCI-H522 lung, 2.51 µM; with OVCAR-3 ovarian it was 0.863 µM. Moreover, the TGI with SN12C renal came out at 7.74 µM; in the assay on HCC-2998 colon, 3.27 µM; with OVCAR-4 ovarian, 16.1 µM; in the assay with SF-295 CNS, 6.16 µM.

Take `Cc1ccc(C)c(N2C(=O)C(=O)C(c3nc4ccccc4s3)/C(=N/N)C2=O)c1` (stereo not given): the TGI with MOLT-4 leukemia, with U251 CNS, in the assay on M14 melanoma, in the assay with HCT-15 colon, in the assay on NCI-H522 lung and in the assay on OVCAR-3 ovarian was more than 100 µM each time. Moreover, the TGI in the assay with SN12C renal was more than 100 µM; in the assay on HCC-2998 colon it was more than 100 µM; in the assay with OVCAR-4 ovarian, more than 100 µM; in the assay with SF-295 CNS, more than 33.5 µM.

As for `CCOC(=O)Cc1c(C)c2cc(C(=O)c3ccccc3)c(O)cc2oc1=O`, the TGI was more than 100 µM in the assay on MOLT-4 leukemia; 74.2 µM with U251 CNS; more than 100 µM in the assay with M14 melanoma; more than 100 µM in the assay on HCT-15 colon; 68.7 µM in the assay on NCI-H522 lung; 53.8 µM in the assay on OVCAR-3 ovarian. Also, the TGI in the assay on SN12C renal, in the assay with HCC-2998 colon, with OVCAR-4 ovarian and in the assay with SF-295 CNS was more than 100 µM each time.

Consider `O=c1oc2ccc(I)cc2c(=O)n1-c1ccc(Br)cc1F`, for which the GI50 with MOLT-4 leukemia is 1590 nM; in the assay with U251 CNS it was 750 nM; with M14 melanoma it was 725 nM; in the assay on HCT-15 colon it was 1280 nM; with NCI-H522 lung, 396 nM; in the assay with OVCAR-3 ovarian it was 511 nM. Moreover, the GI50 in the assay on SN12C renal is 546 nM; with HCC-2998 colon, 2980 nM; in the assay on OVCAR-4 ovarian, 1.12 µM; in the assay with SF-295 CNS it was 1720 nM. Moreover, the TGI in the assay on MOLT-4 leukemia was 5.18 µM; in the assay with U251 CNS it was more than 37.5 µM; in the assay with M14 melanoma, 4.99 µM; with HCT-15 colon, 7.89 µM; in the assay on NCI-H522 lung, 4.85 µM; with OVCAR-3 ovarian, 8.89 µM. The TGI was 5.7 µM in the assay with SN12C renal, 9.5 µM in the assay with HCC-2998 colon, 16.5 µM in the assay on OVCAR-4 ovarian and 3.41 µM with SF-295 CNS.

Take `CC(=O)O[C@@H]1C2CCC3C(CC[C@@]4(C)C3CC[C@@H]4C(C)N(C)C)[C@@]2(C)CC[C@@H]1NC(=O)C=C(C)C` (stereo not given in full): the GI50 with MOLT-4 leukemia was 2330 nM; in the assay on U251 CNS, 2220 nM; in the assay with M14 melanoma, 1850 nM; with HCT-15 colon, 1390 nM; in the assay on NCI-H522 lung it was 2740 nM; in the assay with OVCAR-3 ovarian it was 2240 nM. For the same molecule, the GI50 in the assay with SN12C renal is 3200 nM; in the assay with HCC-2998 colon it was 1730 nM; in the assay on OVCAR-4 ovarian, 3.51 µM; in the assay with SF-295 CNS, 1850 nM. The TGI in the assay on MOLT-4 leukemia is 5.69 µM; with U251 CNS it was 8.61 µM; in the assay with M14 melanoma it was 3.63 µM; in the assay with HCT-15 colon it was 3.45 µM; in the assay on NCI-H522 lung, 8.58 µM; in the assay on OVCAR-3 ovarian, 7.42 µM. Besides, the TGI with SN12C renal amounted to 12.3 µM; with HCC-2998 colon, 3.66 µM; in the assay on OVCAR-4 ovarian, 17.2 µM; in the assay with SF-295 CNS, 4.42 µM.
